These results are taken from patent publication US10047087B2, “Substituted pyrazolo[1,5-A] pyridine as tropomyosin receptor kinase (TrK) inhibitors” (Dr. Reddy's Laboratories Ltd., priority 2011, dated 2018).

pIC50: −log10 of the molar value. Like-named read-outs stand apart in the source and are kept apart here.

The target of series [1] is T1, TrkA kinase (Homo sapiens, UniProt P04629).
T1 construct: purchased Upstate, USA
The series can be described thus: In vitro TrkA inhibitory activity using TR-FRET assay. The format is biochemical. The note with it: 5 ng TrkA, 500 μM ATP. In a few lines:
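Kinase (5 ng) was preincubated with compound for 30 min at 20-35° C before adding 40 nM ULight poly GT and 500 μM ATP; stopped with EDTA after 30 min. Eu-anti-phosphotyrosine antibody (0.5 nM) was read at 615/665 nm with 1% DMSO final. Compounds showing >25% inhibition at 1 μM went to sigmoidal dose-response IC50 fitting.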

A short description of series [2]: Metabolic stability using Human Liver Microsomes (HLM). The note with it: pooled human liver microsomes, compound 1 μM, 0.3 mg/ml microsomal protein, 1 mM NADPH. The format is in vitro ADME. The method, then:
Stability Protocol: Metabolic Stability Using Rat Liver Microsomes (RLM) and Human Liver Microsomes (HLM).
This assay was performed using pooled male rat liver microsomes (In-house prepared as per SOP), Pooled Human liver microsomes (XENOTECH; Batch No— H0630-1110189)). The 100 μl reaction contains the compounds at 1 μM, 0.3 mg/ml microsomal protein and both the co-factors (1 mM NADPH) in buffer and the mixture was incubated at different time points (0, 15, 30, 45, 60, & 90 minutes). The reaction was stopped by the addition of equal volume of acetonitrile containing internal standard (Telmesartin). The precipitated protein was removed by centrifugation and the supernatant were analyzed LC/MS-MS method. The percent parent compound remaining was quantified by analysis using following formula (% parent compound remaining=(peak area at Time x/peak area at T0)×100. The intrinsic clearance was calculated using the following formula. CLint,app: (0.693/in vitro t½)(incubation volume/mg of microsomal protein)(45 mg microsomal protein/gram of liver)(20^a g of liver/kg body weight) • a: 20 and 45 g of liver/kg of body weight were used for human and rat, respectively (Lu C et al., DMD, 2006). Bio-analysis: It was performed in Multiple Reaction Monitoring mode (negative mode) using Applied Biosystems API 4000 coupled to Agilent Technologies 1100 series HPLC on a reverse phase column (Zorbax Eclipse XDB C18, 50×4.6 mm, 5 μm). Celecoxib was used as internal standard both in in-vitro and in-vivo experiments. Mobile phase used 0.05% […] water and acetonitrile (10:90) with a flow rate of 0.6 ml/minute. The injection volume was kept as 10 μl.

The mark [3] stands for this setting: read-out: TrkA inhibition in-vitro IC50.
The mark [4] stands for this setting: both bounds given in nm, read-out: TrkA inhibitory activity in-vitro IC50.

T1 sequence (P04629 33-796): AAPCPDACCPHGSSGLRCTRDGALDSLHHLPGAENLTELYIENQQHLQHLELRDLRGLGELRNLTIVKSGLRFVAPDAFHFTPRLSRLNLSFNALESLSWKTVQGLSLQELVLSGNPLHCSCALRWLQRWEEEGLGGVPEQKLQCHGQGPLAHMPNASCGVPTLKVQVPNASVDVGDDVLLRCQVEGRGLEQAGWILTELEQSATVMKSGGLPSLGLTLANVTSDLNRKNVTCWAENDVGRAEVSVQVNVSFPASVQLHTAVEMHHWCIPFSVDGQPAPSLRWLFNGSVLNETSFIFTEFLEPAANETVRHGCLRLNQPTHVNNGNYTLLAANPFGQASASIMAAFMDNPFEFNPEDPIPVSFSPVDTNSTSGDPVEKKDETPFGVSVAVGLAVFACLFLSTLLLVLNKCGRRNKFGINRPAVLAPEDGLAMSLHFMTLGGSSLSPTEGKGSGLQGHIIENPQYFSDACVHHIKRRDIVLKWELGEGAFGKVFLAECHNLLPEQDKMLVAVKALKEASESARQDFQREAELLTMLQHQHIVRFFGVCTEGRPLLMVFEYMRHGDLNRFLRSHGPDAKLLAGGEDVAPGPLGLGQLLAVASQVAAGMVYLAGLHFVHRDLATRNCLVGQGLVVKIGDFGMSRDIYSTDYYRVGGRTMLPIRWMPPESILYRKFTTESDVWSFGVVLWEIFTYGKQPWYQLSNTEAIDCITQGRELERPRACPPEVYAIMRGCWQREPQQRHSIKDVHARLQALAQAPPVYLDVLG

One may read the pIC50 as the negative decadic logarithm of the IC50, by convention in mol/L. Broadly, the half-life is the time in which the quantity being followed falls by half. A high value points to slow loss. Consider `CCN(C)S(=O)(=O)NC(=O)c1cnn2ccc(N3CCC[C@@H]3c3cc(F)ccc3OC)cc12` [Example 91, (R)-N-(N-ethyl-N-methylsulfamoyl)-5-(2-(5-fluoro-2-methoxyphenyl)pyrrolidin-1-yl)pyrazolo[1,5-a]pyridine-3-carboxamide], for which the pIC50 in series [1] (setting [3]) was not below 7.30. In series [2], the half-life at 1 μM was more than 80 min. For `CC(C)(C)S(=O)(=O)NC(=O)c1cnn2ccc(N3CCC[C@@H]3c3cc(F)cc(OC(F)F)c3)cc12` [Example 43, (R)-N-(tert-butylsulfonyl)-5-(2-(3-(difluoromethoxy)-5-fluorophenyl)pyrrolidin-1-yl) pyrazolo[1,5-a]pyridine-3-carboxamide], in series [1] (setting [4]), the pIC50 was 6.30 to 7.00. This compound also showed a half-life at 1 μM in series [2] of more than 80 min. The compound `CC(C)S(=O)(=O)NC(=O)c1cnn2ccc(N3C[C@@H](F)C[C@@H]3c3cccc(F)c3)c(F)c12` [Example 122, 4-fluoro-5-((2R,4S)-4-fluoro-2-(3-fluorophenyl)pyrrolidin-1-yl)-N-(isopropylsulfonyl) pyrazolo[1,5-a]pyridine-3-carboxamide] yielded a half-life at 1 μM in series [2] of more than 80 min. In turn, `CC(C)(C)S(=O)(=O)NC(=O)c1cnn2ccc(N3C[C@@H](F)C[C@@H]3c3cccc(F)c3)c(F)c12` [Example 121, N-(tert-butylsulfonyl)-4-fluoro-5-((2R,4S)-4-fluoro-2-(3-fluorophenyl)pyrrolidin-1-yl)pyrazolo[1,5-a]pyridine-3-carboxamide] gave a half-life at 1 μM in series [2] of more than 80 min.

For `CC(C)S(=O)(=O)NC(=O)c1cnn2ccc(N3CCC[C@@H]3c3cc(F)ccc3F)c(F)c12` [Example 75, (R)-5-(2-(2,5-difluorophenyl)pyrrolidin-1-yl)-4-fluoro-N-(isopropylsulfonyl)pyrazolo[1,5-a]pyridine-3-carboxamide], the negative logarithm of the IC50 (pIC50) in series [1] (setting [4]) was 6.30 to 7.00. Besides, the half-life at 1 μM in series [2] is more than 80 min. For `CC1(S(=O)(=O)NC(=O)c2cnn3ccc(N4C[C@@H](F)C[C@@H]4c4cc(F)ccc4F)cc23)CC1` [Example 74, 5-((2R,4S)-2-(2,5-difluorophenyl)-4-fluoropyrrolidin-1-yl)-N-((1-methylcyclopropyl)sulfonyl)pyrazolo[1,5-a]pyridine-3-carboxamide], in series [1] (setting [3]), the pIC50 was not below 7.30. The compound further returned a half-life at 1 μM in series [2] of more than 80 min. On the same counts, the results for `CC(C)(C)S(=O)(=O)NC(=O)c1cnn2ccc(N3C[C@@H](F)C[C@@H]3c3cc(F)ccc3F)cc12` (single isomer, unassigned) [Example 52] are not below 7.30 and more than 80 min. `CC(C)(C)S(=O)(=O)NC(=O)c1cnn2ccc(N3CCC[C@@H]3c3cc(F)ccc3OCCF)cc12` [Example 57, (R)-N-(tert-butylsulfonyl)-5-(2-(5-fluoro-2-(2-fluoroethoxy)phenyl)pyrrolidin-1-yl) pyrazolo[1,5-a]pyridine-3-carboxamide]: the negative logarithm of the IC50 (pIC50) in series [1] (setting [3]) is not below 7.30. In series [2], this compound gave a half-life at 1 μM of more than 80 min. On the same counts, the results for `O=C(NS(=O)(=O)Cc1ccccc1)c1cnn2ccc(N3CCC[C@@H]3c3cc(F)ccc3F)cc12` [Example 40, (R)-N-(benzylsulfonyl)-5-(2-(2,5-difluorophenyl)pyrrolidin-1-yl)pyrazolo[1,5-a]pyridine-3-carboxamide] are not below 7.30 and more than 80 min. On the same counts, the results for `O=C(NS(=O)(=O)c1ccc(N2CC[C@H](O)C2)nc1)c1cnn2ccc(N3CCC[C@@H]3c3cc(F)ccc3F)cc12` [Example 25, 5-((R)-2-(2,5-difluorophenyl)pyrrolidin-1-yl)-N-((6-((S)-3-hydroxypyrrolidin-1-yl)pyridin-3-yl)sulfonyl)pyrazolo[1,5-a] pyridine-3-carboxamide] are not below 7.30 and more than 80 min. In the same order, the values of `CN(C)S(=O)(=O)NC(=O)c1cnn2ccc(N3CCC[C@@H]3c3cc(F)ccc3F)cc12` [Example 76, (R)-5-(2-(2,5-difluorophenyl)pyrrolidin-1-yl)-N—(N, N-dimethylsulfamoyl)pyrazolo[1,5-a]pyridine-3-carboxamide] are not below 7.30 and more than 80 min. For `CCOc1ccc(F)cc1[C@H]1CCCN1c1ccn2ncc(C(=O)NS(=O)(=O)C(C)(C)C)c2c1` [Example 45, (R)-N-(tert-butylsulfonyl)-5-(2-(2-ethoxy-5-fluorophenyl)pyrrolidin-1-yl)pyrazolo[1,5-a]pyridine-3-carboxamide], the pIC50 in series [1] (setting [3]) was 7.00 to 7.30. This compound also displayed a half-life at 1 μM in series [2] of more than 80 min.

In the case of `CCN(C)S(=O)(=O)NC(=O)c1cnn2ccc(N3CCCC3c3cc(F)cc4c3OCCCO4)cc12` (single isomer, unassigned) [Example 96, N-(N-ethyl-N-methylsulfamoyl)-5-(2-(8-fluoro-3,4-dihydro-2H-benzo[b][1,4]dioxepin-6-yl)pyrrolidin-1-yl)pyrazolo[1,5-a]pyridine-3-carboxamide], the half-life at 1 μM in series [2] was more than 80 min.

Consider `CCS(=O)(=O)NC(=O)c1cnn2ccc(N3CCC[C@@H]3c3cc(F)ccc3F)cc12` [Example 3, (R)-5-(2-(2,5-difluorophenyl)pyrrolidin-1-yl)-N-(ethylsulfonyl)pyrazolo[1,5-a]pyridine-3-carboxamide], for which the pIC50 in series [1] (setting [4]) was 6.30 to 7.00. In series [2], this compound had a half-life at 1 μM of more than 80 min.

For `COCCOc1ccc(F)cc1[C@H]1CCCN1c1ccn2ncc(C(=O)NS(=O)(=O)C(C)(C)C)c2c1` [Example 65, (R)-N-(tert-butylsulfonyl)-5-(2-(5-fluoro-2-(2-methoxyethoxy)phenyl)pyrrolidin-1-yl)pyrazolo [1,5-a]pyridine-3-carboxamide], the pIC50 in series [1] (setting [3]) is not below 7.30. In series [2], the half-life at 1 μM was more than 80 min. In the same order, the values of `CC(C)(C)S(=O)(=O)NC(=O)c1cnn2ccc(N3CCC[C@@H]3c3cc(F)ccc3OC3CCOC3)cc12` (stereo partly drawn) [Example 59, N-(tert-butylsulfonyl)-5-((2R)-2-(5-fluoro-2-((tetrahydrofuran-3-yl)oxy)phenyl)pyrrolidin-1-yl)pyrazolo[1,5-a]pyridine-3-carboxamide] are not below 7.30 and more than 80 min. Turning to `Cc1ccccc1S(=O)(=O)NC(=O)c1cnn2ccc(N3CCC[C@@H]3c3cc(F)ccc3F)cc12` [Example 39, (R)-5-(2-(2,5-difluorophenyl)pyrrolidin-1-yl)-N-(o-tolylsulfonyl)pyrazolo[1,5-a]pyridine-3-carboxamide], in series [2], the half-life at 1 μM was more than 80 min.

In series [2], `COc1ccc(F)cc1[C@H]1CCCN1c1ccn2ncc(C(=O)NS(=O)(=O)C(C)(C)C)c2c1` [Example 42, (R)-N-(tert-butylsulfonyl)-5-(2-(5-fluoro-2-methoxyphenyl)pyrrolidin-1-yl)pyrazolo[1,5-a] pyridine-3-carboxamide] came in with a half-life at 1 μM of more than 80 min. Same read-out and setting: for `CCN(C)S(=O)(=O)NC(=O)c1cnn2ccc(N3C[C@@H](F)C[C@@H]3c3cccc(F)c3)c(F)c12` [Example 102, N-(N-ethyl-N-methylsulfamoyl)-4-fluoro-5-((2R,4S)-4-fluoro-2-(3-fluorophenyl)pyrrolidin-1-yl)pyrazolo[1,5-a]pyridine-3-carboxamide] the value was more than 80 min.

Turning to `CC(C)(C)S(=O)(=O)NC(=O)c1cnn2ccc(N3CCC[C@@H]3c3cc(F)ccc3OC3CCOCC3)cc12` [Example 124, (R)-N-(tert-butylsulfonyl)-5-(2-(5-fluoro-2-((tetrahydro-2H-pyran-4-yl)oxy)phenyl)pyrrolidin-1-yl)pyrazolo[1,5-a]pyridine-3-carboxamide], the half-life at 1 μM in series [2] is more than 80 min.

Compound `NS(=O)(=O)NC(=O)c1cnn2ccc(N3C[C@@H](F)C[C@@H]3c3cccc(F)c3)c(F)c12` [Example 107, 4-fluoro-5-((2R,4S)-4-fluoro-2-(3-fluorophenyl)pyrrolidin-1-yl)-N-sulfamoylpyrazolo[1,5-a]pyridine-3-carboxamide] had a half-life at 1 μM in series [2] of more than 80 min.

In turn, `CC1(S(=O)(=O)NC(=O)c2cnn3ccc(N4CCC[C@@H]4c4cc(F)ccc4F)cc23)CC1` [Example 38, (R)-5-(2-(2,5-difluorophenyl)pyrrolidin-1-yl)-N-((1-methylcyclopropyl)sulfonyl)pyrazolo[1,5-a] pyridine-3-carboxamide] returned a half-life at 1 μM in series [2] of more than 80 min.

As for `CCN(C)S(=O)(=O)NC(=O)c1cnn2ccc(N3CCC[C@@H]3c3cc(F)cc(O[C@@H]4CCOC4)c3)cc12` [Example 106, N-(N-ethyl-N-methylsulfamoyl)-5-((R)-2-(3-fluoro-5-(((R)-tetrahydrofuran-3-yl)oxy)phenyl)pyrrolidin-1-yl)pyrazolo[1,5-a]pyridine-3-carboxamide], the half-life at 1 μM in series [2] is more than 80 min.
